US8012944B2, “Method for treating cancer using IAP antisense oligomer and chemotherapeutic agent” (Pharmascience Inc., priority 2003, dated 2011)
d = 2'-deoxy (DNA); m = 2'-O-methyl

Tests used:
[1] = system: HIAP1 mRNA; assay: HIAP1 mRNA in SF295 cells under cycloheximide induction (TaqMan); type: cell-based, human
Method: The effect of HIAP1 antisense nucleobase oligomers on HIAP1 protein and mRNA expression was also examined in cells induced to express HIAP1. SF295 cells were transfected with oligonucleotides, or were mock transfected. The transfected cells were then treated with 10 μg/ml cycloheximide for 24 hours to induce 70 kDa HIAP1 mRNA and protein. Protein levels were measured by western blot analysis with an anti-HIAP1 polyclonal antibody, and normalized against actin protein in a re-probing of the same blots. The densitometric scan results were plotted against the mock results (set at 100%) in FIG. 22B. […] The transfection process itself (e.g., mock or scrambled survivin) induces HIAP1 protein compared to the untreated sample as shown on the western immunoblot.
Controls for this experiment were three oligonucleotides for APO 2: one scrambled sequence (same base composition but random order, 5′-AAGGGCGGCGGAGTGAGAC-3′; SEQ ID NO: 297), one reverse polarity (same base composition, same sequential order but in the opposite direction, 5′-AGAGGACGGAGTCGGAGGC-3′; SEQ ID NO: 298), and one mismatch sequence (containing four base mismatches out of 19 bases, 5′-CGGAGCGTGAGGATGGAGA-3′; SEQ ID NO: 299).

[2] = system: XIAP protein; assay: XIAP protein knock-down in H460 cells (western blot, densitometry); type: cell-based, human
Method: FIGS. 3 and 4 are graphs showing the effects of 4×4 mixed backbone (MBO) FG8 or E12 oligonucleotides in amounts of 31 nM (FIG. 3) or 63 nM (FIG. 4). H460 lung carcinoma cells were transfected for 18 hours on one, two, or three consecutive days using 125 nM MBOs and Lipofectamine 2000. Samples for western analysis were harvested at the indicated time. Scanning densitometry was performed, and XIAP protein levels were normalized to GAPDH and compared to a mock control set to 100%. The indicated percentages express % XIAP protein knockdown versus specific scrambled controls.
One day prior to transfection, H460 cells were plated in 6- or 96-well tissue culture plates. Phosphorothioate antisense oligonucleotides were delivered into cells with Lipofectamine 2000 (Life Technologies) in the form of liposome-oligonucleotide complexes. Following a 4.5 or 6 h transfection, the transfection medium was replaced with RPMI medium containing 10% FBS, and the cells incubated for another 24 or 48 h.
The cells or tumor tissue samples were lysed with ice-cold lysis buffer (50 mM Tris, 150 mM NaCl, 2.5 mM EDTA, 0.1% SDS, 0.5% sodium deoxycholate, 1% NP-40, 0.02% sodium azide) containing protease inhibitors (Complete-Mini protease inhibitor tablets; Boehringer Mannheim GmBH, Mannheim, Germany). After incubation for 30 min on ice, samples were centrifuged at 10,000 rpm for 15 min, and stored at −20° C. Protein content in the lysed extracts was determined using a detergent-compatible Bio-Rad assay (Bio-Rad Labs, Hercules, Calif.). Equal amounts of protein (40 μg/lane) were separated on 12% SDS-polyacrylamide gels or 4-15% gradient SDS-polyacrylamide pre-made gels (Bio-Rad) and transferred to nitrocellulose membranes. Primary antibodies against XIAP, Bcl-2 (DAKO, Glostrup, Denmark), Bax (Sigma, St. Louis, Mo.), β-actin (Sigma), caspase-3 (BD PharMingen, San Diego, Calif.), and PARP (BD PharMingen) were used. The secondary antibody was the appropriate horseradish-conjugated anti-mouse or anti-rabbit IgG (Promega, Madison, Wis.). Proteins were detected by enhanced chemiluminescence (ECL; Amersham Pharmacia Biotech, Buckinghamshire, England) and visualized after exposure to Kodak autoradiography film. Scanning densitometry (Molecular Dynamics, Sunnyvale, Calif.) was performed to quantify band intensities by volume/area integration. The amount of XIAP, caspase-3, Bcl-2 and Bax in cells was normalized to their respective lane β-actin levels, upon stripping and reprobing.

[3] = system: MDA-MB-435/LCC6 human breast carcinoma xenografts; assay: Systemic (i.p.) PS-oligonucleotides in LCC6 breast carcinoma xenografts; type: in vivo, female SCID-RAG2 mice; conditions: 12.5 mg/kg i.p.; day 35, two weeks after the last treatment
Method: Initial systemic PS-oligonucleotide studies were designed without any chemotherapeutic agents. SCID-RAG2 mice were inoculated with H460 human lung carcinoma cells (s.c. shoulder injection of 10^6 cells) and treatments with G4 and F3 AS PS-oligonucleotides, as well as a scrambled control, were initiated three days after tumor inoculation. Nucleobase oligomer injections were administered i.p. at 12.5 mg/kg three times a week for three weeks. At the end of the treatment period, mean tumor sizes in the groups treated with either G4 or F3 AS oligonucleotides were ˜50% smaller than in the group treated with a scrambled control oligonucleotides (FIG. 15). The same treatment protocol was tested on female SCID-RAG2 mice inoculated orthotopically with MDA-MB-435/LCC6 human breast carcinoma cells. Two weeks after the last treatment (day 35) tumor volumes of mice treated with F3, C5 or G4 AS oligonucleotides were 70%, 60%, and 45%, respectively, smaller than vehicle controls (FIG. 16).
Efficacy experiments were conducted in male RAG2 immunodeficient mice bearing NCI-H460 tumours or female RAG2 mice bearing LCC6 tumors. Treatments were commenced on day 3 after tumor inoculation. Saline (controls), G4 AS oligonucleotides (5 or 15 mg/kg), or G4 SC oligonucleotides (5 or 15 mg/kg) were administered i.p. daily for five doses a week over a three week regimen. Vinorelbine (VNB, 5 or 10 mg/kg) was administered i.v. via the tail vein, either alone or in combination with oligonucleotides, at day 3, 7, 11 and 17 after tumor inoculation. When oligonucleotides were administered in combination with VNB, the drug treatment was performed four hours after ODN treatment.

[4] = system: XIAP protein; assay: XIAP protein knock-down in T24 cells (XIAP ELISA, relative to total protein); type: cell-based, human; conditions: first screen of the library
Outline: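 T24 bladder carcinoma cells transfected with antisense oligonucleotides using Lipofectamine plus in serum-free, antibiotic-free McCoy's medium for three hours, then serum added. XIAP protein measured by colorimetric sandwich ELISA on day 4, normalized to total cellular protein and compared with mock transfection.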

[5] = system: XIAP mRNA; assay: XIAP mRNA knock-down in H460 cells (real-time RT-PCR / TaqMan); type: cell-based, human; conditions: 2 × 2 MBO; NCI-H460 cells, 9 hours post-transfection; relative level (mock control 1.01)
[6] = system: T24 bladder carcinoma cells; assay: Total cellular protein in transfected T24 cells; type: cell-based, human; conditions: first screen
Method: At day 3, XIAP RNA levels were measured using quantitative real-time PCR techniques, as described above. At day 4, XIAP protein levels were measured by ELISA (FIGS. 1A, 1C, 1E, 1G, 1I, and 1K), and total cellular protein was measured biochemically (FIGS. 1B, 1D, 1F, 1H, 1J, and 1L; used to normalize the XIAP protein levels). The results were compared to a mock transfection sample (treated with the transfection agent but no oligonucleotide DNA was added, and then processed as for the other samples). Time course experiments determined that the optimal time for protein knock-down to be around 12 to 24 hours.
These nucleobase oligomers were also examined for their ability to decrease XIAP mRNA levels at 12 hours, normalized against GAPDH levels, and compared to mock transfection. Total protein concentrations at 12 hours were also determined (FIG. 2C).

[7] = system: XIAP mRNA; assay: XIAP mRNA knock-down in H460 cells (real-time RT-PCR / TaqMan); type: cell-based, human
Outline: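 NCI-H460 cells transfected with phosphorothioate antisense oligonucleotides via Lipofectamine 2000; RNA isolated after 6 h treatment. XIAP mRNA quantified by one-step TaqMan real-time RT-PCR, comparative Ct (threshold 30× baseline SD), normalized to GAPDH and expressed relative to untreated control cells.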

Substance | effect on XIAP protein levels (in words) [2] | XIAP protein levels relative to total protein, compared to mock transfection (in words) [4] | total protein (toxic or cytostatic effect) [6] | XIAP down-regulation H460 RNA [7] [%] | also measured
5′-AAGGGCGGCGGAGTGAGAC-3′ (listed as DNA, chemistry not given here) [H1 sc apo 2, reference compound] | – | – | – | – | effect on HIAP1 mRNA (and protein) under CHX induction (in words) [1]: did not change HIAP1 mRNA levels at all
ACCATTCTGGATACCAGAA (chemistry not fully specified) [C5 AS] | did not show sequence specific effects | – | – | – | tumor volumes smaller than vehicle controls [3]: 60%
AGTTAAATGAATATTGTTT (antisense; sugars from the 5' end m2 d15 m2, backbone and T or U not given here; further chemistry not fully specified) [Code B9] | – | no relative drop | clear drop | 38 | XIAP RNA [5]: 0.74
GACACTCCTCAAGTGAATG (antisense; sugars from the 5' end m2 d15 m2, backbone, methylation of C and T or U not given here; further chemistry not fully specified) [Code C9] | – | no relative drop | clear drop | – | –
TGTCAGTACATGTTGGCTC (antisense; chemistry not fully specified) [Code E12] | significantly reduced XIAP protein levels | – | – | 74 | –
mUmGmCmACCCTGGATACCmAmUmUmU (antisense NGCACCCNGGANACCANNN; 2'-O-methyl modifications, chemistry not fully specified) [FG8] | significantly reduced XIAP protein levels | – | – | – | –
